A word on the IC50: it is the midpoint of a concentration-inhibition curve.

Data set [1] deals with T1, human B1R (Homo sapiens, UniProt P46663).
T1 construct: host or cells: HEK293
T1 sequence (P46663 1-353): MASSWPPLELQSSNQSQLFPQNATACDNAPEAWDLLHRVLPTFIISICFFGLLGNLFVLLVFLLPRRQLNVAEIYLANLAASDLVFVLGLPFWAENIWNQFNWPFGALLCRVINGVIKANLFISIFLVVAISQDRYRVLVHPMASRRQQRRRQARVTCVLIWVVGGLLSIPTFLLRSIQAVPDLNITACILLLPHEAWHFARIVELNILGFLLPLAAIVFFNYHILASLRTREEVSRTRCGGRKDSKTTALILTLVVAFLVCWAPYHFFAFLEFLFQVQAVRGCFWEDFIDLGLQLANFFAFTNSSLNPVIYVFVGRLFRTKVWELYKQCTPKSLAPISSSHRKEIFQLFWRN
The experiment in a line: FLIPR calcium ion flux assay, inhibitory activity against human B1R. The data set is classed as cell-based. The note with it: HEK293 cells stably expressing human B1R; agonist [Lys-des-Arg9]-Bradykinin 4.6 nM (EC80); FLIPR method. Summed up: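 HEK293 cells stably expressing human B1R, loaded with Fluo-4 Direct plus probenecid; compounds 9-point 1:5 series from 30 μM, duplicate, preincubated 10 min. Stimulation with [Lys-des-Arg9]-bradykinin at 4.6 nM final (EC80); peak fluorescence at 538 nm gave IC50.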

Data set [2] is described as follows: Intraocular and retinal drug concentration in rats after eye drops (HPLC). The data set is classed as in vivo. The note with it: both sexes, SD, rat, topical, 10 μL of 2% solution per eye, twice a day for 7 days, 2% eye drops twice a day; for concentration at 1 h after the second eye drop on Day 7: 1 h after administration. An excerpt:
2.1 Experimental aminals: SPF grade male SD rats, weighed 180-200 g, were used and adaptively fed for one week.
2.2 Drugs and reagents: Compound 71 and Compound 8; sodium chloride injection (Guangxi Yuyuan Pharmaceutical Co., Ltd.); sterile filter having 0.22 μm pore size (Millex).
2.3 Experimental animal grouping: the animals were randomly divided into 3 groups (6 rats per group) of a negative control group (normal saline), a Compound 71 group and a Compound 8 group.
2.4 Administration method and sampling: 2% Compound (10 μl) dissolved in normal saline (after filtration) was dropped into the surface of each rat's eye with a pipette for 10 s. The eye drop was applied twice a day for a total of 7 days. Samples were taken at 1 and 16 hours after the second administration on Day 7 of administration to determine the ocular distribution concentration of the drug.
The first batch of samples: 1 hour after the second eye drop on Day 7: 3 rats (2 males and 1 female) were taken from each group. The bulbus oculi were removed, and were thoroughly rinsed for 3 times with normal saline using a pipette. The washing solution was quickly dried with a qualitative filter paper. The cornea, vitreous body and retina were separated under a stereomicroscope, and frozen at −80° C. for subsequent measurement.
The second batch of samples: On the morning of Day 8, i.e., at 16 hours after the second eye drop on Day 7: the remaining 3 rats (1 male and 2 females) were taken from each group. The bulbus oculi were removed, and were thoroughly rinsed for 3 times with normal saline using a pipette. The washing solution was quickly dried with a qualitative filter paper. The cornea, vitreous body and retina were separated under a stereomicroscope, and frozen at −80° C. for subsequent detection.
2.7.3 Results of HPLC measurement of drug content in eye tissue: Under the selected chromatographic conditions for analysis, drug impurities were well separated. The chromatograms for a sample of standard solution, a sample of blank homogenate, a sample of blank homogenate added with Compound 71 or Compound 8, and a sample of retinal homogenate samples were compared. […] Under the selected HPLC measurement conditions, the average recovery rates for two compounds under test were both above 90%. […] The precision can meet the measurement standard. As shown by the accuracy results, the accuracy for all of the high, medium and low concentration retinal spiked quality control samples (QC) within the drug curve range was higher than 95%.

The mark [3] stands for this setting: cornea, read-out: Content of test compound in Cornea.
The mark [4] stands for this setting: cornea, 16 h after administration, read-out: Content of test compound in Cornea.
The mark [5] stands for this setting: retina, read-out: Content of test compound in Retina.
[6] abbreviates: retina, 16 h after administration, read-out: Content of test compound in Retina.
Setting [7] is: vitreous body, read-out: Content of test compound in Vitreous body.
[8] abbreviates: vitreous body, 16 hours after administration, read-out: Content of test compound in Vitreous body.

Where two headings read alike, the source gives them in different places.

`CCOc1ccc(-c2c(F)cc(NC(=O)N3CCC(C(C)(C)C)CC3)cc2-c2nn[nH]n2)cn1` [Compound 8, 4-(tert-butyl)-N-(4-(6-ethoxypyrid-3-yl)-3-fluoro-5-(2H-tetrazol-5-yl)phenyl)piperidine-1-carboxamide]: the IC50 in data set [1] came to 14.9 nM. The concentration at 1 h after the second eye drop on Day 7 in data set [2] (setting [3]) was 101000 ± 28200 ng/g; in data set [2] (setting [5]) it was 55000 ± 6910 ng/g; in data set [2] (setting [7]) it was 18200 ± 4650 ng/g. For the same compound, the concentration at 16 h after the second eye drop on Day 7 in data set [2] (setting [4]) was 40700 ± 18800 ng/g; in data set [2] (setting [6]), 15800 ± 8410 ng/g; in data set [2] (setting [8]), 10100 ± 2670 ng/g.

With `CCOc1ccc(-c2ccc(NC(=O)N[C@H]3CC[C@H](C)CC3)cc2-c2nn[nH]n2)cn1` [Compound 71, 1-(4-(6-ethoxypyrid-3-yl)-3-(2H-tetrazol-5-yl)phenyl)-3-((trans)-4-methylcyclohexyl)urea], in data set [1], the IC50 is 66.1 nM. For the same compound, the figures for the concentration at 1 h after the second eye drop on Day 7 in data set [2] (setting [3]), in data set [2] (setting [5]) and in data set [2] (setting [7]) were 93100 ± 16900 ng/g, 64800 ± 18300 ng/g and 24200 ± 7070 ng/g, respectively. Besides, the values for the concentration at 16 h after the second eye drop on Day 7 in data set [2] (setting [4]), in data set [2] (setting [6]) and in data set [2] (setting [8]) were 43500 ± 6590 ng/g, 6070 ± 3060 ng/g and 12700 ± 3490 ng/g, respectively.

The record behind these values is US20250353835A1, “N-TETRAZOLYL ARYL UREA-BASED DERIVATIVES, PREPARATION METHOD THEREFOR, AND USE THEREOF” (Hangzhou Yirui Pharmaceutical Technology Co., Ltd, priority 2022, published 2025).
